Reference: PMC4261083, “An atypical residue in the pore of Varroa destructor GABA-activated RDL receptors affects picrotoxin block and thymol modulation” (Insect Biochemistry and Molecular Biology, 2014)
Where a chain is given by its changes, count along the chain named.

Tests used:
Assay in all cases: GABA activation of RDL receptors, two electrode voltage clamp in Xenopus oocytes
Format in all cases: cell-based
[1] = target: T1, T6′M mutant Drosophila RDL receptor (Drosophila melanogaster, UniProt P25123, T305M)
T1 construct: expressed in transfected cells; host or cells: Xenopus laevis oocytes injected with cRNA
T1 sequence (P25123 45-606 T305M): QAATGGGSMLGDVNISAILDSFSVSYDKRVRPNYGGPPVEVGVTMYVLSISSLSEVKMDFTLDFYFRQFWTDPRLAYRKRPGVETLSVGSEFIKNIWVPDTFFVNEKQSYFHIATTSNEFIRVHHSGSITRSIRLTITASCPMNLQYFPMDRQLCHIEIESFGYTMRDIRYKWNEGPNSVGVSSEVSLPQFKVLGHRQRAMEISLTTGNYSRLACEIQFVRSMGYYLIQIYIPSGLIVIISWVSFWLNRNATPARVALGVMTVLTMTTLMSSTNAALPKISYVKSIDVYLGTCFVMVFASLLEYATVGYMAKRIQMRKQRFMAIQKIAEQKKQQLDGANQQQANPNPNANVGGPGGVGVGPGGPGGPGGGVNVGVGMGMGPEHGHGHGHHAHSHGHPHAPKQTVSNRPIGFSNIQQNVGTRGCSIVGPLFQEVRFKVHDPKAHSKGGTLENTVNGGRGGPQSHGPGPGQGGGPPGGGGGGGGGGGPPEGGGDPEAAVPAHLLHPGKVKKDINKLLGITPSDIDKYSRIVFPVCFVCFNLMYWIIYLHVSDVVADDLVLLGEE
Protocol: (§1) X. laevis oocyte-positive females were purchased from NASCO (Fort Atkinson, Wisconsin, USA) and maintained according to standard methods. Harvested stage V-VI Xenopus oocytes were washed in four changes of ND96 (96 mM NaCl, 2 mM KCl, 1 mM MgCl2, 1 mM CaCl2, 5 mM HEPES, pH 7.5), de-folliculated in 1.5 mg ml^−1 collagenase Type 1A for approximately 2 h, washed again in four changes of ND96 and stored in ND96 containing 2.5 mM sodium pyruvate, 0.7 mM theophylline and […].
(§2) Site directed mutagenesis was performed with the QuikChange mutagenesis kit (Agilent, La Jolla, CA). cRNA was transcribed in vitro from linearised pGEMHE cDNA template using the mMessage mMachine T7 Transcription kit (Ambion, Austin, Texas, USA). Stage V and VI oocytes were injected with 5 ng cRNA, incubated at 18 °C, and currents recorded 18–24 h post-injection.
(§3) Currents were recorded at 5 kHz and filtered at a frequency of 1 kHz. Micro-electrodes were fabricated from borosilicate glass (GC120TF-10, Harvard Apparatus, Edenbridge, Kent, UK) using a one stage horizontal pull (P-87, Sutter Instrument Company, California, USA) and filled with 3 M KCl. […] Oocytes were perfused with ND96 at a constant rate of 12 ml min^−1. Drug application was via a simple gravity fed system calibrated to run at the same rate.
(§4) Analysis and curve fitting was performed using Prism v5 (GraphPad Software, San Diego, California, USA). Concentration-response data for each oocyte was normalised to the maximum current for that oocyte. The mean and S.E.M. for a series of oocytes were fitted to the four parameter logistic equation in Prism.

[2] = target: T2, A21′Q mutant Drosophila RDL receptor (Drosophila melanogaster, UniProt P25123, A320Q)
T2 construct: expressed in transfected cells; host or cells: Xenopus laevis oocytes injected with cRNA
T2 sequence (P25123 45-606 A320Q): T1 sequence (P25123 45-606 T305M) with M261T, A276Q
Protocol: as §1, §2, §3, §4

[3] = target: T3, 4M2 mutant Drosophila RDL receptor (N-7′H, T6′M, A20′S and A21′Q) (Drosophila melanogaster, UniProt P25123, A319S/A320Q/N292H/T305M); conditions: 4M2 RDL
T3 construct: expressed in transfected cells; host or cells: Xenopus laevis oocytes injected with cRNA
T3 sequence (P25123 45-606 N292H/T305M/A319S/A320Q): T1 sequence (P25123 45-606 T305M) with N248H, A275S, A276Q
Protocol: as §1, §2, §3, §4

Q: What does the source list for `NCCCC(=O)O` [GABA]?
A: GABA nH (Hill slope) [1]: 1.4 ± 0.2; GABA nH (Hill slope) [2]: 1.9 ± 0.4; GABA nH (Hill slope) [3]: 1.0 ± 0.3
